Assay [1] relates to CEM cells. The assay can be described thus: Trypan blue cell viability assay, DEM-treated cells. To be noted: for EC50: CEM cells, pre-treatment 2 h, diethylmaleate 3 h, trypan blue exclusion, read-out: EC50 (effective concentration that prevents 50% of cell death); for maintaining cell viability (trypan blue exclusion): overnight incubation, then 5 mM DEM, 3 h. In kind it is cell-based, human. The procedure: Cell viability determined by trypan blue exclusion assay: This technique was used to assess the cytoprotective effects of the invention compounds in cultured cells pharmacologically treated to induce cell death by GSH depletion. DEM was used to deplete cellular GSH and induce oxidative stress. The viability of DEM-treated CEM cells was determined by their ability to exclude the dye trypan blue. Viable cells exclude trypan blue; whereas, non-viable cells take up the dye and stain blue. Briefly, CEM cells were grown in RPMI 1640 medium (GIBCO, Grand island, N.Y., USA) supplemented with 10% fetal calf serum, 2 mM glutamine (HyClone, South Logan, Utah, USA), 1% penicillin-streptomycin mix (Cellgro, Manassan, Va., USA). Cells were seeded at a density of 1×10^6 cells/mL and treated with different concentrations of the invention compounds. Cells were incubated at 37° C. in a humidified atmosphere of 5% CO2 in air for three hours with 5 mM DEM. Cell viability was determined by staining cells with 0.4% trypan blue using a hemacytometer. At least 500 cells were counted for each experimental group. At the time of assay, >95% of DEM-treated cells were trypan blue positive; whereas, in non-DEM treated control cell cultures >95% cells were viable. Cell viability was expressed as the percentage of control. Data are expressed as means±S.E.M (n=3).

The test system of assay [2] is CEM cells. The assay can be described thus: Reactive oxygen species (ROS) assay, DCFH-DA, DEM-treated cells. In kind it is cell-based, human. The text has this: Cellular ROS production can be monitored using 2′,7′-dichlorodihydrofluorescein diacetate (DCFH-DA) (LeBel et al. (1992) Chem. Res. Toxicol. 5, 227-231) (Molecular Probes, Eugene, Oreg., USA), a membrane permeable and oxidant-sensitive fluorescent dye. DCFH-DA is a non-fluorescent derivative of fluorescein that emits fluorescence after being oxidized by hydrogen peroxide and other ROS. The emitted fluorescence is directly proportional to the concentration of hydrogen peroxide. DCFH-DA is nonionic and nonpolar and is easily taken up by cells. Once inside the cell, DCFH-DA is hydrolyzed by cellular esterases to non-fluorescent DCFH which traps the dye in the cell. In the presence of ROS including hydrogen peroxide, DCFH is oxidized to the highly fluorescent compound dichlorofluorescein (DCF). The intracellular DCF fluorescence is used as an index of cellular ROS production.
Cellular oxidative stress was induced by pharmacological depletion of glutathione (GSH) using the chemical diethylmaleate (DEM). ROS production was assessed by monitoring DCF fluorescence. Leukemic CEM cells (ATCC®, catalogue number CRL-2264) were cultured in RPMI (GIBCO, Grand island, N.Y., USA) with 10% FCS, 2 mM glutamine (HyClone, South Logan, Utah, USA) and 1% penicillin-streptomycin mix antibiotics (Cellgro, Manassan, Va., USA) supplements. Cells were maintained in the log phase at a concentration of between 1×10^5 and 1×10^6 cells/mL. CEM cells (1×10^6 cell/mL) were plated (1 mL) in twelve well plate and treated with the invention compounds (final concentration 1 and 5 μM), and incubated for two hours at 37° C., 5% CO2. The compounds tested were prepared by first making stock solutions (2.5 mM) in dimethylsulfoxide (DMSO). Cells were treated with 5 mM DEM for 30 minutes and collected by centrifugation at 300×g for 3 min and then washed twice with Hanks' Balanced Salt Solution (HSSB) buffer (Sigma, St. Louis, Mo. USA). Cells were resuspended in HSSB buffer+10 mM glucose and incubated at 37° C. in the dark for 20 min with 10 μM DCFH-DA. Cells were collected by centrifugation at 300×g for 3 min and then washed twice with HSSB buffer. The samples were analyzed immediately by flow cytometry (Becton-Dickinson FACS Caliber), (Cell Quest software, BD Biosciences) using 488 nm excitation laser and FL1-H channel 538 nm emission filter. In each analysis, 10,000 events were recorded after cell debris were electronically gated out. Results obtained were verified by repeating experiments N=3 independent experiments. Authentic hydrogen peroxide was used as a positive control.

The structures appear in SMILES notation. Entries after “also recorded” stand apart in the source; their conditions may differ. Read-outs that look alike come from different tables or passages of the source.

Regarding `Cc1nc(N(C)C)nc(CCCCCCCCCCO)c1O` [Compound A, 2-N,N-dimethylamino-5-hydroxy-4-methyl-6-(10-hydroxydecyl)-pyrimidine], the EC50 in assay [1] amounted to 202 ± 23 nM; in assay [1] (Homo sapiens, CCRF-CEM) it was 203 ± 23 nM. The “maintaining cell viability (trypan blue exclusion)” value (“maintaining cell viability” for short) in assay [1] is recorded as “quite effective in maintaining cell viability following DEM treatment; also recorded: superior to idebenone in maintaining the viability of DEM-treated cells”. In addition, the “protection against ROS production (DCF fluorescence)” value (shortened to “protection against ROS production”) is listed as “complete protection” in assay [2] (compound 1 μM, 5 mM DEM) and “significantly more effective in blocking diethylmaleate-induced ROS production compared to idebenone or its reduced form (Idebenol); also recorded: protected the cells” in assay [2] (compound 5 μM, 5 mM DEM). The “suppression of ROS production (DCF fluorescence)” value in assay [2] (pretreatment 0.5, 1 or 5 μM, DEM) is on record as “more effective than idebenone at all tested concentrations; also recorded: more effective than idebenone in suppressing ROS in a dose-dependent fashion”.
For the compound `Cc1nc2c(c(CC[C@](C)(O)CCC[C@H](C)CCC[C@H](C)CCCC(C)C)c1O)CCN2C` [Compound C, 4-((3R,7R,11R)-3-hydroxy-3,7,11,15-tetramethylhexadecyl)-1,6-dimethyl-2,3-dihydro-1H-pyrrolo[2,3-b]pyridine-5-ol], the “maintaining cell viability” value in assay [1] is listed as “both effective in maintaining cell viability following treatment with DEM, with compound C being somewhat more effective; also recorded: superiority of compound C”. For the same compound, the “suppression of ROS (DCF fluorescence)” value in assay [2] (1 μM, pretreatment 1, 3 or 6 hours, 5 mM DEM) is “clearly more effective than α-tocopherol in suppressing ROS”. For the same compound, the “protection against ROS production” value in assay [2] (5 μM, pretreatment 4 or 24 h) is on record as “better protection against ROS production than α-tocopherol after a 4-hour preincubation”; in assay [2] (compound 5 μM, 5 mM DEM), “more effective in protecting glutathione depleted CEM cells than α-tocopherol; also recorded: protected the cells”.
In the case of `COC1=C(OC)C(=O)C(CCCCCCCCCCO)=C(C)C1=O` [idebenone, reference compound], the EC50 in assay [1] (Homo sapiens, CCRF-CEM) is 765 ± 36 nM. The “protection against ROS production” value in assay [2] (compound 5 μM, 5 mM DEM) is recorded as “only limited effect”.
Consider `Cc1c(C)c2c(c(C)c1O)CC[C@@](C)(CCC[C@H](C)CCC[C@H](C)CCCC(C)C)O2` [α-tocopherol, reference compound], for which the “maintaining cell viability” value in assay [1] is “effective in maintaining cell viability following treatment with DEM”. Besides, in assay [2] (compound 5 μM, 5 mM DEM), the “protection against ROS production” value is “ineffective”.

For the origin of these results see patent publication US8952025B2, “Multifunctional radical quenchers and their uses” (Arizona Board of Regents, A Body Corporate of the State of …, priority 2010, dated 2015).
